Measurements published in patent US5691335A, “Imidazolidine derivative and use thereof” (Suntory Limited, priority 1994, dated 1997).
Read-outs that look alike come from different tables or passages of the source.

How the values were obtained:
[1] = target: T1, Human cardiac chymase (Homo sapiens, UniProt P23946); assay: Inhibitory activity against chymase (Ang I to Ang II conversion, HPLC); format: biochemical
T1 construct: Human cardiac chymase was purified according to the process of Urata et al; from tissue; host or cells: human heart (cardiac)
T1 sequence (P23946 22-247): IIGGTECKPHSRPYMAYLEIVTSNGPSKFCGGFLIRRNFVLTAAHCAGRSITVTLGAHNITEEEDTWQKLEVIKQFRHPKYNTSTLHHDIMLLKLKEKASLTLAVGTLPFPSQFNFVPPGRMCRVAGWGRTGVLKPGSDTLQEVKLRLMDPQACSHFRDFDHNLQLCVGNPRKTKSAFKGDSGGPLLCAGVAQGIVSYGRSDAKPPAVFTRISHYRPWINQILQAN
Experimental: Human cardiac chymase was purified according to the process of Urata et al. (see the literature described above), and the inhibitory activities of the hydantoin compounds according to the present invention against the chymase were determined in the following manner. Namely, 10 μl of the purified chymase and 5 μl of a solution of a sample to be tested in dimethyl sulfoxide (hereinafter abbreviated as "DMSO") were added to 10 μl of a 20 mM Tris-hydrochloric acid buffer (pH 7.5) containing 2M KCl, and the resultant mixture was preincubated at 37° C. for 10 minutes and then added with 25 μl of a 1 mM solution of Ang I, followed by incubation at 37° C. for 30 minutes. Then, 50 μl of 30% acetic acid were added to stop the enzyme reaction. On the other hand, 5 μl of DMSO were added in place of the solution of the test sample to similarly conduct a reaction as a blank test.
(§1) After completion of the reaction, each liquid reaction mixture was subjected to high performance liquid chromatography on Develosil ODS-5 (product of Nomura Kagaku, 4.6 mm across×150 mm long) to develop it at a linear concentration gradient that the concentration of acetonitrile in 0.05% trifluoroacetic acid (hereinafter abbreviated as "TFA") is increased from 0% to 60% in 10 minutes at a flow rate of 2.0 ml/min. Monitoring was performed by the absorbance measurements at 210 nm. Peaks were identified by comparison with standard solutions of Ang I and Ang II. The areas of the peaks were determined by an integrator to quantitate Ang I and Ang II, thereby calculating chymase activity. The inhibitory activity against chymase was determined by calculating an inhibition rate, median inhibitory concentration (IC50) on the basis of the value in the blank test.

[2] = in vivo; conditions: mouse, po
[3] = target: T2, cathepsin G (Homo sapiens, UniProt P08311); assay: Inhibitory activity against cathepsin G (Ang I to Ang II conversion, HPLC); format: biochemical
T2 construct: cathepsin G (product of Calbiochem Co.) derived from human neutrophil; purchased Calbiochem Co; host or cells: human neutrophil
T2 sequence (P08311 21-244 limits assumed): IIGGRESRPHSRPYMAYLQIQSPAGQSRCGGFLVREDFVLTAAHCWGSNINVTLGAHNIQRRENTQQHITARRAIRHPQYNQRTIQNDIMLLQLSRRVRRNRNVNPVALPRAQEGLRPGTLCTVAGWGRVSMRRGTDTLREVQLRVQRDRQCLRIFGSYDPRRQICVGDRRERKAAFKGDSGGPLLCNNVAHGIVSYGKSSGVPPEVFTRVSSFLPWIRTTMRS
Experimental: as §1
To a 20 mM Tris-hydrochloric acid buffer (pH 7.5) containing 2M KCl, were added 20 μl of a solution with cathepsin G (product of Calbiochem Co.) derived from human neutrophil dissolved at a concentration of 2 μg/ml in the same buffer, and 5 μl of a DMSO solution of a sample to be tested, and the resultant mixture was preincubated at 37° C. for 10 minutes and then added with 25 μl of a 1 mM solution of Ang I, followed by incubation at 37° C. for 30 minutes. Then, 50 μl of 30% acetic acid were added to stop the enzyme reaction. On the other hand, 5 μl of DMSO were added in place of the solution of the test sample to similarly conduct a reaction as a blank test. […] The inhibitory activity against cathepsin G was determined by calculating an inhibition rate, median inhibitory concentration (IC50) on the basis of the value in the blank test.

[4] = target: T3, bovine pancreas α-chymotrypsin (Bos taurus, UniProt P00766); assay: Inhibitory activity against chymotrypsin (Ang I conversion, HPLC); format: biochemical
T3 construct: bovine pancreas α-chymotrypsin (product of Sigma Chemical Co., TypeII); purchased Sigma Chemical Co. TypeII; host or cells: bovine pancreas
Experimental: as §1
To 12 μl of a 20 mM Tris-hydrochloric acid buffer (pH 7.5) containing 2M KCl, were added 8 μl of a solution with bovine pancreas α-chymotrypsin (product of Sigma Chemical Co., TypeII) dissolved at a concentration of 8 μg/ml in a 20 mM aqueous solution of CaCl2 containing 1 mM HCl, and 5 μl of a DMSO solution of a sample to be tested, and the resultant mixture was preincubated at 37° C. for 10 minutes and then added with 25 μl of a 1 mM solution of Ang I, followed by incubation at 37° C. for 15 minutes. Then, 50 μl of 30% acetic acid were added to stop the enzyme reaction. On the other hand, 5 μl of DMSO were added in place of the solution of the test sample to similarly conduct a reaction as a blank test. After completion of the reaction, each liquid reaction mixture was treated by high performance liquid chromatography in the same manner as in Test Example 1 to quantitate Ang I and Ang II, thereby calculating chymotripsin activity. The inhibitory activity against chymotrypsin was determined by calculating an inhibition rate, median inhibitory concentration (IC50) on the basis of the value in the blank test.

[5] = cited from earlier work
[6] = system: chymase; conditions: literature, Okunishi et al.; cited from earlier work
[7] = system: vascular restenosis after the operation of PTCA; conditions: random multifacility clinical study, Circulation 1992; cited from earlier work
[8] = 37° C., pH 7.5, Ang I substrate, read-out: Inhibitory activities against enzymes (IC50), Chymase
[9] = human neutrophil cathepsin G, 37° C., pH 7.5, Ang I substrate, read-out: Inhibitory activities against enzymes (IC50), Cathepsin
[10] = bovine pancreas, 37° C., pH 7.5, Ang I substrate, read-out: Inhibitory activities against enzymes (IC50), Chymotrypsin

| SMILES | IC50 [1, 8] [µM] | IC50 [3, 9] [µM] | IC50 [4, 10] [µM] | also measured |
| --- | --- | --- | --- | --- |
| O=C1CN(c2ccc(Cl)cc2)C(=O)N1S(=O)(=O)c1ccc(Cl)cc1 [Compound 1, 3-(4-chlorobenzenesulfonyl)-1-(4-chlorophenyl)imidazolidin-2,4-dione] | 0.3 | 1.5 | 0.5 | LD50 at 24 h [2]: ≥ 1000 mg/kg; selectivity ratio at 24 h [2]: ≥ 50 |
| Cc1ccccc1S(=O)(=O)N1C(=O)CN(c2ccccc2)C1=O [Compound 2, 1-phenyl-3-(2-toluenesulfonyl)-imidazolidin-2,4-dione] | – | – | – | LD50 at 24 h [2]: ≥ 1000 mg/kg; selectivity ratio at 24 h [2]: ≥ 50 |
| Cc1ccc(S(=O)(=O)N2C(=O)CN(c3ccccc3)C2=O)cc1 [Compound 5, 1-phenyl-3-(4-toluenesulfonyl)-imidazolidin-2,4-dione] | – | 4.5 | 7 | – |
| O=C1CN(c2ccccc2)C(=O)N1C(=O)c1ccccc1Cl [Compound 10, 3-(2-chlorobenzoyl)-1-phenyl-imidazolidin-2,4-dione] | 3.7 | 0.96 | 3.5 | – |
| O=C1CN(c2ccccc2)C(=O)N1C(=O)c1ccc(-c2ccccc2)cc1 [Compound 15, 3-(4-phenylbenzoyl)-1-phenyl-imidazolidin-2,4-dione] | 14 | 3.2 | 6.9 | – |
| COc1cccc(S(=O)(=O)N2C(=O)CN(c3ccccc3)C2=O)c1 [Compound 20, 1-phenyl-3-(3-methoxybenzenesulfonyl)-imidazolidin-2,4-dione] | – | 8 | 3.7 | – |
| O=C1CN(c2ccccc2)C(=O)N1S(=O)(=O)c1cccc(Oc2ccccc2)c1 [Compound 25, 3-(3-phenoxybenzenesulfonyl)-1-phenyl-imidazolidin-2,4-dione] | – | 3.3 | 1.4 | – |
| O=C1CN(c2ccc(Oc3ccccc3)cc2)C(=O)N1S(=O)(=O)c1ccc(Cl)cc1 [Compound 30, 3-(4-chlorobenzenesulfonyl)-1-(4-phenoxyphenyl)-imidazolidin-2,4-dione] | – | 4.8 | 39 | – |
| COC(=O)c1cccc(S(=O)(=O)N2C(=O)CN(c3ccccc3)C2=O)c1 [Compound 35, 3-(3-methoxycarbonylbenzenesulfonyl)1-phenyl-imidazolidin-2,4-dione] | – | – | 1.8 | – |
| O=C(O)COc1ccc(S(=O)(=O)N2C(=O)CN(c3ccccc3)C2=O)cc1 [Compound 40, 3-(4-carboxymethyloxybenzenesulfonyl)-1-phenyl-imidazolidin-2,4-dione] | 10 | 7 | 34 | – |
| C=CCOC(=O)Cc1cccc(S(=O)(=O)N2C(=O)CN(c3ccccc3)C2=O)c1 [Compound 45, 3-(3-allyloxycarbonylmethylbenzenesulfonyl)-1-phenyl-imidazolidin-2,4-dione] | 0.45 | 4.5 | 3.5 | – |
| CN1CCN(C(=O)Cc2ccc(S(=O)(=O)N3C(=O)CN(c4ccccc4)C3=O)cc2)CC1 [Compound 50, 3-(4-N-methylpiperazylcarbonyl-methylbenzenesulfonyl)-1-phenyl-imidazolidin-2,4-dione] | – | – | – | IC50 [1]: 0.85 µM; IC50 [3]: 11 µM; IC50 [4]: 5.2 µM |
| CC(C)(C)OC(=O)c1cccc(N2CC(=O)N(S(=O)(=O)c3ccc(Cl)cc3)C2=O)c1 [Compound 55] | 15 | 9.8 | 70 | – |
| Cc1ccc(N2CC(=O)N(S(=O)(=O)c3ccc(C)c(C)c3)C2=O)cc1C [Compound 60] | 0.06 | 1.7 | – | inhibition at 100 µM [4]: 33.6% |
| C=CCOC(=O)c1ccc(S(=O)(=O)N2C(=O)CN(c3ccc(C)c(C)c3)C2=O)cc1 [Compound 65, 3-(4-allyloxycarbonylbenzenesulfonyl)-1-(3,4-dimethylphenyl)-imidazolidin-2,4-dione] | 0.027 | 1.9 | 8.5 | – |
| O=C1CN(c2ccccc2)C(=O)N1S(=O)(=O)c1cccc2ccccc12 [Compound 70, 3-(1-naphthysulfonyl)-1-(phenyl)-imidazolidin-2,4-dione] | 0.55 | 1.8 | 1.6 | – |
| O=C1CN(c2ccc(Cl)c(Cl)c2)C(=O)N1S(=O)(=O)c1ccc2ccccc2c1 [Compound 75, 1-(3,4-dichlorophenyl)-3-(2-naphthylsulfonyl)imidazolidin-2,4-dione] | 0.047 | 0.52 | 2.4 | – |
| O=C1CN(c2cnc3ccccc3c2)C(=O)N1S(=O)(=O)c1ccc(Cl)cc1 [Compound 80, 3-(4-chlorobenzenesulfonyl)-1-(3-quinolyl)-imidazolidin-2,4-dione] | 0.17 | 19 | 90 | – |
| CC(C)C[C@H](NC(=O)[C@@H](NC(=O)N[C@@H](Cc1ccccc1)C(=O)O)[C@@H]1CCN=C(N)N1)C(=O)N[C@H](C=O)Cc1ccccc1 [chymostatin] | – | – | – | decomposition of peptide linkage in vivo [5]: easily decomposed in vivo; inhibition of the enzymatic activity of chymase, in words [6]: inhibited by chymostatin |
| CCOC(=O)[C@H](CCc1ccccc1)N[C@H]1CCCN2CCC[C@@H](C(=O)O)N2C1=O [cilazapril] | – | – | – | prophylactic effect on vascular restenosis after PTCA versus placebo [7]: no statistically significant difference |
